In patent EP0597004B1, “THE USE OF DIOXAPYRROLOMYCIN AS AN ANTIPARASITIC AGENT AND COMPOSITIONS USEFUL THEREFOR” (PHARMACIA & UPJOHN COMPANY, priority 1991, dated 1993):
“And” between values parts separate entries of the source, which are not always exact repeats. Equal values may be shown once. Where a name gives a salt, the structure may show the parent alone. Read-outs that look alike come from different tables or passages of the source.

Experiments:
[1] = tested on: ivermectin-resistant Haemonchus contortus; assay: Jird assay with ivermectin-resistant strain (cross-resistance); format: in vivo; settings: jirds, necropsy day 13 PI
From the text: (§1) Having shown potent activity against H. contortus in sheep, dioxapyrrolomycin was examined for cross-resistance to the three major classes of broad-spectrum anthelmintics (ivermectin, levamisole, and benzimidazoles) using jirds infected with resistant strains of H. contortus. […] In vitro, the dioxapyrrolomycin dose required to affect a closantel-resistant strain of H. contortus is approximately seventeen times that required for the susceptible strain.
(§2) This in vivo assay utilizes jirds infected with two important target parasites of ruminants, H. contortus and T. colubriformis (anthelmintic-sensitive or -resistant worms can be used). Initially, activity is assessed only against H. contortus as described in G.A. Conder et. al., J. Parasitol. 76:168-170 (1990), while follow-up studies examine activity against both species of parasites using the techniques outlined in G.A. Conder et al., J. Parsitol. 77:168-170 (1991).

[2] = tested on: levamisole/benzimidazole-resistant Haemonchus contortus; assay: Jird assay with levamisole/benzimidazole-resistant strain (cross-resistance); format: in vivo; settings: jirds, necropsy day 13 PI
From the text: as §1, §2

Haemonchus contortus [3] = assay: Haemonchus contortus / jird assay (clearance from experimentally infected jirds); format: in vivo; settings: necropsy day 13 PI; for Percentage Clearance Susceptible: susceptible strain; for Percentage Clearance H. contortus: purity ∼100%
Description: as §2

[4] = mice, cited from earlier work
Caenorhabditis elegans = Caenorhabditis elegans in vitro assay; settings: free-living nematode
From the text: The free-living nematode C. elegans in vitro assay has been described extensively in the literature, for example, K.G. Simpkin and G.C. Coles, J. Chem. Tech. Biotechnol., 31:66-69 (1981).
Dioxapyrrolomycin is active in the C. elegans assay at 0.825 ppm.

Haemonchus contortus [5] = assay: Haemonchus contortus / sheep assay (clearance from monospecifically infected lambs); format: in vivo; settings: necropsy day 42 PI
Description: Purpose bred, helminth-free lambs are procured. Upon arrival, the lambs are treated with ivermectin (0.2 mg/kg, subcutaneously), vaccinated for sore mouth, and placed in a single, community pen. Three weeks later each lamb is treated with levamisole hydrochloride (8.0 mg/kg per os). Two weeks after treatment with levamisole, all lambs are inoculated per os with ∼ 7,500 infective larvae of H. contortus. Rectal fecal samples are taken from each lamb 1 to 3 days prior to infection and these are examined using the double centrifugation technique to verify that the animals are free of trichostrongyles prior to infection. […] Remaining lambs are treated per os on day 35 PI; 4-5 animals receive vehicle only. Prior to administration, test materials are prepared in a manner suitable for the substance being examined. All lambs are monitored for toxic signs following treatment. Lambs are killed 7 days after treatment (day 42 PI), and the abomasum is ligated and removed from each animal. Each abomasum is opened longitudinally and the contents rinsed into an 80 mesh sieve. Sieve contents are collected in individual containers and fixed in formol-alcohol. Later each sample is transferred to a 1,000 ml graduated cylinder and the volume brought to 400 - 1000 ml with tap water. The total number of worms in a 10% aliquot is determined. If no worms are found in the 10% aliquot, the entire sample is examined. Total worm number/lamb and percentage clearance for each treatment are calculated. Percentage clearance is determined according to the following formula: Percentage clearance = [(Mean number of worms recovered from vehicle control lambs - number of worms recovered from treated lamb)/mean number of worms recovered from vehicle control lambs] x 100.

[6] = tested on: closantel-resistant strain of H. contortus; assay: In vitro cross-resistance with closantel-resistant strain; parameters: species or system Haemonchus contortus; settings: closantel-resistant vs susceptible H. contortus
From the text: as §1

[7] = tested on: Trichostrongylus colubriformis; assay: Trichostrongylus colubriformis / jird assay (clearance from experimentally infected jirds); format: in vivo; settings: necropsy day 13 PI, purity ∼100%
Description: as §2

[8] = 0.11 mg/jird per os day 10 PI, purity 95%
[9] = 0.012 mg/jird per os on day 10 PI
[10] = 0.11 mg/jird per os on day 10 PI

## Ivermectin
[1]; 0.005 mg/jird per os day 10 PI
  Percentage Clearance Ivermectin Resistant: 18.7%
[2]; 0.005 mg/jird per os day 10 PI
  Percentage Clearance Levamisole/Benzimidazole Resistant: 98.6%
Haemonchus contortus [3]; 0.005 mg/jird per os day 10 PI
  Percentage Clearance Susceptible: ∼95.0%

## CCCSc1ccc2nc(NC(=O)OC)[nH]c2c1 [Albendazole, reference compound]
[2]; 0.075 mg/jird per os day 10 PI
  Percentage Clearance Levamisole/Benzimidazole Resistant: 36.2%
Haemonchus contortus [3]; 0.075 mg/jird per os day 10 PI
  Percentage Clearance Susceptible: ∼95.0%

## O=[N+]([O-])c1c([C@H]2OCOc3c(Cl)cc(Cl)cc32)[nH]c(Cl)c1Cl [Dioxapyrrolomycin, dioxapyrrolomycin]
[4]; ip
  LD50: 125 to 250 mg/kg
[4]; po
  LD50: 13 mg/kg
[1]; [8]
  Percentage Clearance Ivermectin Resistant: 92.7%
[2]; [8]
  Percentage Clearance Levamisole/Benzimidazole Resistant: 98.6%
Caenorhabditis elegans
  active in the C. elegans in vitro assay at: 0.825 ppm
Haemonchus contortus [3]; [9]
  Percentage Clearance H. contortus: 45.8%
Haemonchus contortus [3]; 0.037 mg/jird (= 0.925 mg/kg) per os on day 10 PI
  Percentage Clearance H. contortus: 96.4%
Haemonchus contortus [3]; [10]
  Percentage Clearance H. contortus: 100%
Haemonchus contortus [3]; [8]
  Percentage Clearance Susceptible: 95.8%
Haemonchus contortus [5]; 0.78 mg/kg per os on day 35 PI
  Percentage Clearance: 44.0%
Haemonchus contortus [5]; 1.56 mg/kg per os on day 35 PI
  Percentage Clearance: 92.2%
Haemonchus contortus [5]; 3.125 mg/kg per os on day 35 PI, 3.125 mg/kg
  Percentage Clearance: 99.7% and 99.9%
Haemonchus contortus [5]; 6.25 mg/kg per os on day 35 PI
  Percentage Clearance: 99.9%
Haemonchus contortus [5]; 12.5 mg/kg per os on day 35 PI
  Percentage Clearance: 100%
[6]
  dose required to affect a closantel-resistant strain relative to that required for the susceptible strain: approximately seventeen
[7]; [9]
  Percentage Clearance T. colubriformis: 48.8%
[7]; 0.037 mg/jird per os on day 10 PI
  Percentage Clearance T. colubriformis: 17.2%
[7]; [10]
  Percentage Clearance T. colubriformis: 0%
[7]; 0.33 mg/jird (= 8.25 mg/kg) per os on day 10 PI
  Percentage Clearance T. colubriformis: 41.5%

## c1ccc([C@H]2CN3CCSC3=N2)cc1 [Levamisole hydrochloride]
[1]; 0.4 mg/jird per os day 10 PI
  Percentage Clearance Ivermectin Resistant: 96.4%
[2]; 0.4 mg/jird per os day 10 PI
  Percentage Clearance Levamisole/Benzimidazole Resistant: 51.7%
Haemonchus contortus [3]; 0.4 mg/jird per os day 10 PI
  Percentage Clearance Susceptible: ∼95.0%
